Reference: patent publication US9155706B2, “Pharmaceutical composition” (Novartis AG, priority 2010, dated 2015)
“And” between values parts separate entries of the source, which are not always exact repeats. Equal values may be shown once. “Also recorded” adds a separate entry of the source. Read-outs that look alike come from different tables or passages of the source.

How the values were obtained:
[1] = Photostability: light exposure under ICH Q1B conditions, impurities by HPLC; type: physicochemical
Procedure: Uncoated tablets, 0.5, 1 and 2 mg were exposed to ICH Photostability conditions and tested to provide baseline impurity information for comparison.

[2] = Exposure and absorption upon in vivo administration (statement)
[3] = Desolvation during handling and formulation (statement); type: physicochemical
[4] = Toxic effects at high doses (statement); type: in vivo; details: when administered in high doses
[5] = Solubility (comparative statement); type: physicochemical
clinical = details: human, plasma, oral, 2 mg
Excerpt: (§3) Preliminary PK data was obtained in subjects with solid tumors following single-and repeat-dose oral administration of Compound tablets. The dose-escalation part of the first-time-in-human study (FTIH), involved administration of Compound in one of 3 main dosing regimens: • QD dosing with the designated dose for 21 days, followed by 7 days without drug; • Administration of a loading dose (LD) on both Day 1 and Day 2, or on Day 1 only, followed by continuous QD dosing with the designated dose; or • Administration of continuous QD dosing without a loading dose.
(§4) Additional blood samples were taken pre-dose on Day 15 of Cycle 1 and Day 1 of further cycles in Part 2 and Part 3 to assess steady state trough levels of Compound.

[6] = female, beagle, dog, in vivo, po
Excerpt: (§1) The pharmacokinetics, absorption, distribution, metabolism and elimination of N-{3-[3-cyclopropyl-5-(2-fluoro-4-iodo-phenylamino)-6, 8-dimethyl-2,4,7-trioxo-3,4,6,7-tetrahydro-2H-pyrido[4,3-d]pyrimidin-1-yl]phenyl}acetamide and solvates thereof, including the dimethyl sulfoxide solvate (collectively referred to as “Compound” when used in connection with animal models or human clinical trials), were investigated in a series of in vitro investigations and with in vivo oral (gavage) and IV studies in the Balb/c mouse, Sprague Dawley rat (unless otherwise stated), beagle dog and cynomolgus monkey using unlabeled and [14C]-labeled Compound. A list of these studies is included, along with subsequently obtained human clinical results, in Table 1 below. For in vivo studies, various formulations were used. For oral dosing, solutions or suspensions were administered.
(§2) Dose range studies in rats at doses up to 1 mg/kg/day for 14 days and in dogs at doses up to 0.5 mg/kg/day (or 10 mg/m2/day) for 10 days were conducted prior to the studies.
In vivo toxicology studies were conducted in Sprague Dawley rats and beagle dogs by oral gavage (Table 3). Studies were conducted using the DMSO solvate of Compound formulated as a suspension in 1.5% hydroxypropylmethylcellulose, 5% mannitol, and 0.2% sodium lauryl sulfate. For all toxicology studies, doses are expressed based on body surface area (mg/m2). […]

[7] = Repeat dose toxicokinetics and toxicology, oral gavage, DMSO solvate of Compound, rat; details: for Cmax End of Study: Sprague Dawley, rat, in vivo, po, 0.25 mg/m2
Excerpt: as §1, §2
In vivo toxicology studies were conducted in Sprague Dawley rats and beagle dogs by oral gavage (Table 3). Studies were conducted using the DMSO solvate of Compound formulated as a suspension in 1.5% hydroxypropylmethylcellulose, 5% mannitol, and 0.2% sodium lauryl sulfate. For all toxicology studies, doses are expressed based on body surface area (mg/m2). In general, to convert mg/m2 doses to mg/kg, divide the doses by 8 for rats and 20 for dogs.

[8] = Repeat-dose (Day 15) pharmacokinetics of Compound tablets, first-time-in-human study; details: individual values
Excerpt: as §3, §4

[9] = Single-dose (Day 1) pharmacokinetics of Compound tablets, first-time-in-human study; details: fasting; for AUC(0-t): AUC (0-24); for Tmax: median (range)
Excerpt: Preliminary PK data was obtained in subjects with solid tumors following single-and repeat-dose oral administration of Compound tablets.

[10] = single dose Day 1, oral tablets, 0.5 mg, individual values
[11] = single dose Day 1, oral tablets, 1.0 mg, individual values

CC(=O)Nc1cccc(-n2c(=O)n(C3CC3)c(=O)c3c(Nc4ccc(I)cc4F)n(C)c(=O)c(C)c32)c1 [Compound A, N-{3-[3-cyclopropyl-5-(2-fluoro-4-iodo-phenylamino)-6,8-dimethyl-2,4,7-trioxo-3,4,6,7-tetrahydro-2H-pyrido[4,3-d]pyrimidin-1-yl]phenyl}acetamide dimethyl sulfoxide solvate]
photo-stability (in words) [1]: sensitive to photo-induced degradation; also recorded: can suffer from photo-instability
exposure and absorption [2]: poor exposure and absorption
desolvation to unsolvated Compound B [3]: can undergo desolvation
toxic effects [4]: can cause toxic effects when administered in high doses

CC(=O)Nc1cccc(-n2c(=O)n(C3CC3)c(=O)c3c(Nc4ccc(I)cc4F)n(C)c(=O)c(C)c32)c1 [Compound B, N-{3-[3-cyclopropyl-5-(2-fluoro-4-iodo-phenylamino)-6,8-dimethyl-2,4,7-trioxo-3,4,6,7-tetrahydro-2H-pyrido[4,3-d]pyrimidin-1-yl]phenyl}acetamide]
solubility compared with Compound A [5]: much less soluble than Compound A

CC(=O)Nc1cccc(-n2c(=O)n(C3CC3)c(=O)c3c(Nc4ccc(I)cc4F)n(C)c(=O)c(C)c32)c1 [Compound, N-{3-[3-cyclopropyl-5-(2-fluoro-4-iodo-phenylamino)-6,8-dimethyl-2,4,7-trioxo-3,4,6,7-tetrahydro-2H-pyrido[4,3-d]pyrimidin-1-yl]phenyl}acetamide]
half-life (clinical): ~120 h
Cmax End of Study ([6]; 0.3 mg/m2): 7.24 ng/mL
Cmax End of Study ([6]; 0.45 mg/m2): 9.78 ng/mL
maximum tolerated dose (MTD) ([7]; Rat, 3 weeks, oral, two doses marked MTD, sex shown by bolding that is lost): 0.5 mg/m^2/day and 1 mg/m^2/day
Cmax End of Study ([7]; female): 8.03 ng/mL
Cmax End of Study ([7]; male): 5.34 ng/mL
AR (Accumulation Ratio) ([8]; repeat dose Day 15, 0.50 mg): 28.3 and 10.2
T1/2, eff (Effective Half-Life) ([8]; repeat dose Day 15, 0.50 mg): 461 h and 161 h
AR (Accumulation Ratio) ([8]; repeat dose Day 15, 1 mg): 18.1 and 7.8
T1/2, eff (Effective Half-Life) ([8]; repeat dose Day 15, 1 mg): 293 h and 122 h
AR (Accumulation Ratio) ([8]; repeat dose Day 15, 4 mg): 2.42 and 3.45
T1/2, eff (Effective Half-Life) ([8]; repeat dose Day 15, 4 mg): 48.5 h
C24 ([9]; Day 1, oral tablets, 6.0 mg loading dose, mean (CV %) and range): (3.4-11.1) ng/mL
C24 ([9]; Day 1, oral tablets, 8.0 mg loading dose, mean (CV %) and range): (2.98-12.1) ng/mL
C24 ([9]; Day 1, oral tablets, 10.0 mg loading dose, mean (CV %) and range): (21.0-29.0) ng/mL
Cmax ([9]; human, plasma, po, 0.5 mg, Cmax, single dose Day 1, oral tablets, 0.5 mg, individual values): 0.85 ng/mL
AUC(0-t) ([9]; human, plasma, po, 1 mg, single dose Day 1, oral tablets, 1.0 mg, individual values): 13.5 ng·h/mL
Cmax ([9]; human, plasma, po, 1 mg, Cmax, single dose Day 1, oral tablets, 1.0 mg, individual values): 1.71 ng/mL
AUC(0-t) ([9]; human, plasma, po, 2 mg, single dose Day 1, oral tablets, 2.0 mg, mean (CV %) and range): 44.2 to 77.4 ng·h/mL
Cmax ([9]; human, plasma, po, 2 mg, Cmax, single dose Day 1, oral tablets, 2.0 mg, mean (CV %) and range): 5.4 to 8.81 ng/mL
Tmax ([9]; human, plasma, po, 2 mg, single dose Day 1, oral tablets, 2.0 mg): 1.5 to 2 h
AUC(0-t) ([9]; human, plasma, po, 2.5 mg, single dose Day 1, oral tablets, 2.5 mg, mean (CV %) and range): 47.3 to 95.9 ng·h/mL
Cmax ([9]; human, plasma, po, 2.5 mg, Cmax, single dose Day 1, oral tablets, 2.5 mg, mean (CV %) and range): 6.7 to 16.2 ng/mL
Tmax ([9]; human, plasma, po, 2.5 mg, single dose Day 1, oral tablets, 2.5 mg): 1 to 2 h
AUC(0-t) ([9]; human, plasma, po, 3 mg, single dose Day 1, oral tablets, 3.0 mg, mean (CV %) and range): 27.6 to 188 ng·h/mL
Cmax ([9]; human, plasma, po, 3 mg, Cmax, single dose Day 1, oral tablets, 3.0 mg, mean (CV %) and range): 2.82 to 22.9 ng/mL
Tmax ([9]; human, plasma, po, 3 mg, single dose Day 1, oral tablets, 3.0 mg): 0.5 to 3 h
AUC(0-t) ([9]; human, plasma, po, 4 mg, single dose Day 1, oral tablets, 4.0 mg, mean (CV %) and range): 167 to 275 ng·h/mL
Cmax ([9]; human, plasma, po, 4 mg, Cmax, single dose Day 1, oral tablets, 4.0 mg, mean (CV %) and range): 16.3 to 34.2 ng/mL
AUC(0-t) ([9]; human, plasma, po, 6 mg, Day 1, oral tablets, 6.0 mg loading dose, mean (CV %) and range): 96.7 to 320 ng·h/mL
Cmax ([9]; human, plasma, po, 6 mg, Cmax, Day 1, oral tablets, 6.0 mg loading dose, mean (CV %) and range): 6.91 to 37.2 ng/mL
Tmax ([9]; human, plasma, po, 6 mg, Day 1, oral tablets, 6.0 mg loading dose): 1.05 to 8.08 h
AUC(0-t) ([9]; human, plasma, po, 8 mg, Day 1, oral tablets, 8.0 mg loading dose, mean (CV %) and range): 62.9 to 308 ng·h/mL
Cmax ([9]; human, plasma, po, 8 mg, Cmax, Day 1, oral tablets, 8.0 mg loading dose, mean (CV %) and range): 4.28 to 32 ng/mL
Tmax ([9]; human, plasma, po, 8 mg, Day 1, oral tablets, 8.0 mg loading dose): 1 to 24 h
AUC(0-t) ([9]; human, plasma, po, 10 mg, Day 1, oral tablets, 10.0 mg loading dose, mean (CV %) and range): 773 to 979 ng·h/mL
Cmax ([9]; human, plasma, po, 10 mg, Cmax, Day 1, oral tablets, 10.0 mg loading dose, mean (CV %) and range): 65.1 to 87.8 ng/mL
Tmax ([9]; human, plasma, po, 10 mg, Day 1, oral tablets, 10.0 mg loading dose): 1 to 2 h
AUC (0-24) [9, 10]: 2.13 ng·h/mL and 9.69 ng·h/mL
C24 [9, 10]: 0 ng/mL and 0.31 ng/mL
AUC (0-24) [9, 11]: 12.2 ng·h/mL
C24 [9, 11]: 0.38 ng/mL and 0.27 ng/mL
Cmax [9, 11]: 1.96 ng/mL
C24 ([9]; single dose Day 1, oral tablets, 2.0 mg, mean (CV %) and range): (1.15-1.93) ng/mL
C24 ([9]; single dose Day 1, oral tablets, 2.5 mg, mean (CV %) and range): (1.25-3.10) ng/mL
C24 ([9]; single dose Day 1, oral tablets, 3.0 mg, mean (CV %) and range): (0.75-13.4) ng/mL
C24 ([9]; single dose Day 1, oral tablets, 4.0 mg, mean (CV %) and range): (5.53-14.9) ng/mL
